Laboratory results from ChEMBL document CHEMBL1201862, “PubChem BioAssay data set” (2004).
Calls of active or inactive are those of the source.

What was measured:
[1] = viability loss in HeLa cells – cytotoxicity control for MgcRacGAP inhibitor project, dose response (AID 624300); format: functional
[2] = target: T1, Rac GTPase-activating protein 1 (Homo sapiens, UniProt Q9H0H5); experiment: blockers of MgcRacGAP-driven Rac1 GTP hydrolysis – biochemical, ADP Hunter fluorescence, primary and confirmatory, confirmation (AID 624330); format: functional
T1 sequence (Q9H0H5 whole entry): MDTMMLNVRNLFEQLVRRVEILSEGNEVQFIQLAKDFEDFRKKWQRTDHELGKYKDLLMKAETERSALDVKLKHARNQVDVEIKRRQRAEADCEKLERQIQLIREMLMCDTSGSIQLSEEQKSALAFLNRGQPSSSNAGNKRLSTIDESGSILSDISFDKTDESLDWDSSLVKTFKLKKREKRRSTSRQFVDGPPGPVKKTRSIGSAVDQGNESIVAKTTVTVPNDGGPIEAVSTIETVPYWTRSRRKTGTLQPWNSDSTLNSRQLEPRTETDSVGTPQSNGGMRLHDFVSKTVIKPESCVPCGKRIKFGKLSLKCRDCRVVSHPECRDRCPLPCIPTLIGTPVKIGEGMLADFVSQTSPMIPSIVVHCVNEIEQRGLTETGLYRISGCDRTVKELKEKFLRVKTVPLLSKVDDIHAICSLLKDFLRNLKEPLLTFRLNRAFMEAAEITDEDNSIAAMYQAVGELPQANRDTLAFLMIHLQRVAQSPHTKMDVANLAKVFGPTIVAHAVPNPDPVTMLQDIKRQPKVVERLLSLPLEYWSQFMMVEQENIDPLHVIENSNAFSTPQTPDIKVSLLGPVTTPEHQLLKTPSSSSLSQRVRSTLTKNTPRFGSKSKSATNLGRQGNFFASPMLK

Melanocortin receptor 4 = Melanocortin receptor 4 (Homo sapiens, UniProt P32245); experiment: inhibitors of MC4R cAMP signaling – cell-based, TR-FRET, biased antagonists, dose response (AID 602298); format: functional;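 also: antagonist potency against agonist-stimulated cAMP production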
[3] = cAMP pathway inhibition in counterscreen cell line – TR-FRET cAMP detection, counter-screen for MC4R biased antagonist project, dose response (AID 602305); format: functional, cell-based;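 also: U2OS cells stimulated with forskolin near its EC80 as the cAMP inducer; potency is for inhibition of forskolin-stimulated cAMP signaling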
[4] = target: 5-hydroxytryptamine receptor 2A (Mus musculus, UniProt P35363); format: functional, cell-based;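 also: CHO-K1 cells with tagged receptor and beta-arrestin; agonist potency measured as compound-induced activation of the receptor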
Mu-type opioid receptor [5] = target: T2, Mu-type opioid receptor (Homo sapiens, UniProt P35372); format: functional, cell-based
[6] = inhibition of ARNT PAS-B/TACC3 complex formation – biochemical, AlphaScreen, cherry-picked samples, confirmation (AID 651703); format: functional, Homo sapiens;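 also: His-tagged ARNT PAS-B domain paired with GST-TACC3 E629A dimer coactivator fragment; potency of inhibitors that break up the complex and lower AlphaScreen signal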
[7] = cytotoxicity in HEK293 background cells – cell-based, dry powder, set 2, counter-screen for EBV LMP1 inhibitor project, dose response (AID 624374); format: functional
Beta-lactamase [8] = target: Beta-lactamase (Pseudomonas aeruginosa, UniProt Q79MP6);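 also: biochemical dose-response test of metallo-beta-lactamase enzyme inhibition, read out by epi-absorbance; purified recombinant IMP-1 metallo-beta-lactamase with nitrocefin as substrate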
Beta-lactamase [9] = target: Beta-lactamase (Salmonella choleraesuis (strain SC-B67), UniProt Q5J463)
[10] = target: Delta-type opioid receptor (Homo sapiens, UniProt P41143); experiment: Counterscreen for agonists of heterodimerization of the mu 1 (OPRM1) and delta 1 (OPRD1) opioid receptors: Luminescence-based cell-based high throughput dose response assay to identify agonists of OPRD1 homodimerization. [Related pubchem assays (depositor defined):AID504326, AID504355, AID504692, AID504904, AID504905]; format: functional
Mu-type opioid receptor [11] = target: T2, Mu-type opioid receptor; experiment: Counterscreen for agonists of heterodimerization of the mu 1 (OPRM1) and delta 1 (OPRD1) opioid receptors: Luminescence-based cell-based high throughput dose response assay to identify agonists of OPRM1 homodimerization.; format: functional
[12] = target: 5-hydroxytryptamine receptor 5A (Homo sapiens, UniProt P47898); experiment: Counterscreen for agonists of OPRM1-OPRD1 heterodimerization: luminescence-based cell-based high throughput dose response assay to identify agonists of 5-hydroxytryptamine (serotonin) 5A receptor (HTR5A). [Related pubchem assays (depositor defined):AID504326, AID504355, AID504692, AID504904, AID504905]; format: functional
[13] = target: DNA repair and recombination protein RAD54-like (Homo sapiens, UniProt Q92698); experiment: RAD54 Holliday junction migration blockers – biochemical, fluorescence, cherry-picked samples, dose series, confirmation (AID 651657); format: functional
[14] = target: T3, DNA repair protein RAD52 homolog (Homo sapiens, UniProt P43351); format: functional, biochemical
T3 sequence (P43351 whole entry): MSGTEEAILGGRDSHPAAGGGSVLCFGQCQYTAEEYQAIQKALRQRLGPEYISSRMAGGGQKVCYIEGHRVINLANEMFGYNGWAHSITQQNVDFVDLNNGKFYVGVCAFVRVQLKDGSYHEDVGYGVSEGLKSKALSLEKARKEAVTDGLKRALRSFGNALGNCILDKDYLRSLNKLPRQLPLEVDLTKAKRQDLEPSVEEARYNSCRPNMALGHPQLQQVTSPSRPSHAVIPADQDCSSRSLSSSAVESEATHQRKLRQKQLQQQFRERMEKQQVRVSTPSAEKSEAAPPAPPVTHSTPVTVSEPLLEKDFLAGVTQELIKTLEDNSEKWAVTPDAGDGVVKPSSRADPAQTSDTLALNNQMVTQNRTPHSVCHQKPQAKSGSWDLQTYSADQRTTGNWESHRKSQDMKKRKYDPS

HeLa = experiment: ATP-based viability loss in HeLa cells – cell-based, CellTiter-Glo luminescence, cherry-pick samples, cytotoxicity control for MITF activator project, dose response (AID 540259); format: functional; details: Homo sapiens
[15] = Luminescence Cell-Based Dose Response HTS to Identify Inhibitors of 5'UTR Stem-Loop Driven Prion Protein mRNA Translation in H4 Neuroglioblastoma Cells. [Related pubchem assays: 1827 (Project Summary), 1813 (Primary HTS)]; format: functional
[16] = alpha-synuclein stem-loop luciferase translation blockers – H4 neuroglioma cells, luminescence, confirmation (AID 1988); format: functional, cell-based
Cytochrome P450 2C19 = Cytochrome P450 2C19 (Homo sapiens, UniProt P33261); experiment: Cytochrome panel assay with activity outcomes. Panel member name: p450-cyp2c19 Compounds with AC50 equal or less than 10 uM are considered active; format: functional; details: read-out: AC50
[17] = luciferase reporter signal suppression in cells – H4 neuroglioma cells, luminescence, dose response (AID 1990); format: functional, cell-based
Cytochrome P450 2D6 = Cytochrome P450 2D6 (Homo sapiens, UniProt P10635);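 also: CYP2D6 member of a cytochrome P450 panel assay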
[18] = target: Hepatocyte nuclear factor 4-alpha (Homo sapiens, UniProt P41235); format: functional, cell-based;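 also: biochemical luminescence-based dose-response counterscreen measuring inhibition of HNF4 dimerization, run alongside a screen for blockers of ABHD5–perilipin-5 interaction; split luciferase complementation of HNF4 fusion proteins in cell lysate measuring dimerization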
[19] = target: T4, Corticotropin-releasing factor receptor 2/Corticotropin-releasing factor-binding protein (Homo sapiens, UniProt P24387+Q13324); experiment: Dose Response confirmation of uHTS hits for small molecule antagonists of the CRF-binding protein and CRF-R2 receptor complex.; format: functional; details: read-out: IC50_Mean
T4 sequence (Q13324 whole entry): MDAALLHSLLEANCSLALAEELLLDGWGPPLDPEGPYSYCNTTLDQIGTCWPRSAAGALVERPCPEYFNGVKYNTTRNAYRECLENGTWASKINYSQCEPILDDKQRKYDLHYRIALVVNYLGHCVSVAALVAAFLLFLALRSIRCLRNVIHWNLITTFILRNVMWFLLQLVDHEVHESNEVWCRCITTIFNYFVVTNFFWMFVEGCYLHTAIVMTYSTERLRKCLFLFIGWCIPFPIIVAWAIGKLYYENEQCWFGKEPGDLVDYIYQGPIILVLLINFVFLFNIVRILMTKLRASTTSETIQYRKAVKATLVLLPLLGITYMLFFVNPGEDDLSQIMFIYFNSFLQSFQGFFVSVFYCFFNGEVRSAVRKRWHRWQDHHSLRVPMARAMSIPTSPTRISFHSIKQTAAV
T4 sequence (P24387 whole entry): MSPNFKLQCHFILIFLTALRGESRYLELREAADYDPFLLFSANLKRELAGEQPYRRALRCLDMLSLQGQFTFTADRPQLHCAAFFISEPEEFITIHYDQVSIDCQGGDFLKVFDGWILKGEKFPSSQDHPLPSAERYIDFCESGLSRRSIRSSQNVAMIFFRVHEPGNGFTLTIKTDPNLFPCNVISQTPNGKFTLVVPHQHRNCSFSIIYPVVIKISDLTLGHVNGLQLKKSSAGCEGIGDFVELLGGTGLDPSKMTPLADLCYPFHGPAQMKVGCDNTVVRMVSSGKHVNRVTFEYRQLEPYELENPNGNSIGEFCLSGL

[20] = target: T4, Corticotropin-releasing factor receptor 2/Corticotropin-releasing factor-binding protein; experiment: activators of CRF receptor 2 with binding protein – uHTS hits, confirmation (AID 602473); format: functional; details: read-out: EC50_Mean
[21] = blockers of CRF-binding protein–CRF-R2 complex – cell-based, uHTS hits, 384-well, dose response (AID 651639); format: functional, Homo sapiens; details: read-out: IC50_Mean
Cytochrome P450 3A4 = Cytochrome P450 3A4 (Homo sapiens, UniProt P08684);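 also: CYP3A4 tested as one member of a cytochrome P450 panel screen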
Cytochrome P450 2C9 = Cytochrome P450 2C9 (Homo sapiens, UniProt P11712)
Protein skinhead-1 = target: T5, Protein skinhead-1 (Caenorhabditis elegans, UniProt P34707); format: functional
T5 sequence (P34707 whole entry): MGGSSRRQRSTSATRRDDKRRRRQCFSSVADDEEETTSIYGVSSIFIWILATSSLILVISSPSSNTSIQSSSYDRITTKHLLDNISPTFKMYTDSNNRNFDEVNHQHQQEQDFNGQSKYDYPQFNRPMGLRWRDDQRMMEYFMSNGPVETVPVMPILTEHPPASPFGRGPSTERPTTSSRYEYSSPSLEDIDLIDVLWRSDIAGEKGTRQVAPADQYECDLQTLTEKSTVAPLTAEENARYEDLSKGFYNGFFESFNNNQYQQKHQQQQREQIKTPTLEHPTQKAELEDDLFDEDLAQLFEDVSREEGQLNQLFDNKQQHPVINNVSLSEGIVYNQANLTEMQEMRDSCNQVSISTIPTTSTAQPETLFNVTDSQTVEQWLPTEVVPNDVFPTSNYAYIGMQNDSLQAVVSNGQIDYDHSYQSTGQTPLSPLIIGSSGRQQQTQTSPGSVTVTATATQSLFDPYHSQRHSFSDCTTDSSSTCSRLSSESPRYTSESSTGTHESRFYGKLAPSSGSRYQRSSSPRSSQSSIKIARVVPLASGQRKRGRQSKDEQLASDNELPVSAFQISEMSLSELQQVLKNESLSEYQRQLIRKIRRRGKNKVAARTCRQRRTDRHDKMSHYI

T2 sequence (P35372 whole entry, the tested form may be a part): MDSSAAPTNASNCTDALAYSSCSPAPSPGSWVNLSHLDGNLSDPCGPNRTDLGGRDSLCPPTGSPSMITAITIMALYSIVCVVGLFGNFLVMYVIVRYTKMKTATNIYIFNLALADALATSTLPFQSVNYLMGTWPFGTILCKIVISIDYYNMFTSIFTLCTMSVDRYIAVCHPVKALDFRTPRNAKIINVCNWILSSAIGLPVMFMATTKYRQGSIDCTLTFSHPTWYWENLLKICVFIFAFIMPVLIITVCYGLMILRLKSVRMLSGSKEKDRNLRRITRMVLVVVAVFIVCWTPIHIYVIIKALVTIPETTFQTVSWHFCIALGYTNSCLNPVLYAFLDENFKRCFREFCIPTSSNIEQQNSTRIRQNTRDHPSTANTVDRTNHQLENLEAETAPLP
Sequence of Hepatocyte nuclear factor 4-alpha (P41235 whole entry, the tested form may be a part): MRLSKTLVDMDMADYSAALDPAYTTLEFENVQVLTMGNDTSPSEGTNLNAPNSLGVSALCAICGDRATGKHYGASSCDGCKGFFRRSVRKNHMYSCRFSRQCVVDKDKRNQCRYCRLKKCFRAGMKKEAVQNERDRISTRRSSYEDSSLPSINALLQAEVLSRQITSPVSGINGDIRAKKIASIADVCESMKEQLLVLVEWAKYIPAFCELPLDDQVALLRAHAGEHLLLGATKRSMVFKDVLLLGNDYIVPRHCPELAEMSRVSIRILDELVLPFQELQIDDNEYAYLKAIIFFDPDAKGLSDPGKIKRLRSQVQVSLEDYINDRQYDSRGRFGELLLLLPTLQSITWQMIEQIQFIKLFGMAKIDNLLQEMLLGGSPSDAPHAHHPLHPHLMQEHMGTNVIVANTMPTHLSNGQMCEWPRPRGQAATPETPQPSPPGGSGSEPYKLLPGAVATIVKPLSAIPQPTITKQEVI
Sequence of Cytochrome P450 2D6 (P10635 whole entry, the tested form may be a part): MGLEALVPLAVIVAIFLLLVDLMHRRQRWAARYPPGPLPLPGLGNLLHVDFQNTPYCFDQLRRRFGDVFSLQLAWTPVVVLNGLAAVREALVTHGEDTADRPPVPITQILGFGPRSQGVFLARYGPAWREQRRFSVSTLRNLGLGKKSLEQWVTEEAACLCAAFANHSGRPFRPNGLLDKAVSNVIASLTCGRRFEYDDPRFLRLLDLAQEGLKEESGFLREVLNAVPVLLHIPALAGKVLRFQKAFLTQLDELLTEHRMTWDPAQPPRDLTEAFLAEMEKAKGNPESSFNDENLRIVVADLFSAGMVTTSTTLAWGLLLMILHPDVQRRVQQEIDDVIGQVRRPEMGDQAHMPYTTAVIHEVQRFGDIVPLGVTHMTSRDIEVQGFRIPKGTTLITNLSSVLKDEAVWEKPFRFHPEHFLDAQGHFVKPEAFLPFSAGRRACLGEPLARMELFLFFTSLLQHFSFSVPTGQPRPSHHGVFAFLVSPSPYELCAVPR
Sequence of 5-hydroxytryptamine receptor 2A (P35363 whole entry): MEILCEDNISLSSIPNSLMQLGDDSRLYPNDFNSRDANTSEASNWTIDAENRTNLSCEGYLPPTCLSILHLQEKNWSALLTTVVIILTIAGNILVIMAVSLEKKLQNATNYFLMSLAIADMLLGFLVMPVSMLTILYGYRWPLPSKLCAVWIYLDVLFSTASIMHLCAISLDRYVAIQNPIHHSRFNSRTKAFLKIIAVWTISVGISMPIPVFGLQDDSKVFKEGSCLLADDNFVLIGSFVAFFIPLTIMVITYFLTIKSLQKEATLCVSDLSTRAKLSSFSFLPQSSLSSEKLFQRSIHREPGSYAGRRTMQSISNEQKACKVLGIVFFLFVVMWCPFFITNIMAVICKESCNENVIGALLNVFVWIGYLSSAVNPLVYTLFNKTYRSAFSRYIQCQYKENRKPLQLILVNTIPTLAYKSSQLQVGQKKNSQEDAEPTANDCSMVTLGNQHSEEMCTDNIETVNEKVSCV
Sequence of DNA repair and recombination protein RAD54-like (Q92698 whole entry): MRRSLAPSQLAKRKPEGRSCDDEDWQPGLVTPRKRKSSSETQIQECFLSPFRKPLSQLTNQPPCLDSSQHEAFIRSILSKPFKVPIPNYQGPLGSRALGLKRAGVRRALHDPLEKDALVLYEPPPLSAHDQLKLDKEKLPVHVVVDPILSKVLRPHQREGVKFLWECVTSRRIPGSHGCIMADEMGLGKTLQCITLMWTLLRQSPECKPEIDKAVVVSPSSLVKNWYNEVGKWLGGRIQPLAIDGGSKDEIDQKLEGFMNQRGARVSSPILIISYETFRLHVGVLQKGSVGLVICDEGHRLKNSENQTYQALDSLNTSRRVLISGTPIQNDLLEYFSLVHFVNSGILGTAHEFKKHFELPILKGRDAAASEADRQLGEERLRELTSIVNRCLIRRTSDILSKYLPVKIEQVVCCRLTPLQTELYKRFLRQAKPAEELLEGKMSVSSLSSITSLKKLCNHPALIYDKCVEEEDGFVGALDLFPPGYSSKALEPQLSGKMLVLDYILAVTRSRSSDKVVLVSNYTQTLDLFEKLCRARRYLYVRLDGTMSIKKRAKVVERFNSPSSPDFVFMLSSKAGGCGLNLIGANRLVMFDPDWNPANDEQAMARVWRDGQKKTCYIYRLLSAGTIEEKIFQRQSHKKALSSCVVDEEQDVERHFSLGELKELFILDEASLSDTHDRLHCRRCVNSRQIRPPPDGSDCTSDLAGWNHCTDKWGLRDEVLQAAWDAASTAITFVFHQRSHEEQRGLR
Sequence of Cytochrome P450 2C19 (P33261 whole entry): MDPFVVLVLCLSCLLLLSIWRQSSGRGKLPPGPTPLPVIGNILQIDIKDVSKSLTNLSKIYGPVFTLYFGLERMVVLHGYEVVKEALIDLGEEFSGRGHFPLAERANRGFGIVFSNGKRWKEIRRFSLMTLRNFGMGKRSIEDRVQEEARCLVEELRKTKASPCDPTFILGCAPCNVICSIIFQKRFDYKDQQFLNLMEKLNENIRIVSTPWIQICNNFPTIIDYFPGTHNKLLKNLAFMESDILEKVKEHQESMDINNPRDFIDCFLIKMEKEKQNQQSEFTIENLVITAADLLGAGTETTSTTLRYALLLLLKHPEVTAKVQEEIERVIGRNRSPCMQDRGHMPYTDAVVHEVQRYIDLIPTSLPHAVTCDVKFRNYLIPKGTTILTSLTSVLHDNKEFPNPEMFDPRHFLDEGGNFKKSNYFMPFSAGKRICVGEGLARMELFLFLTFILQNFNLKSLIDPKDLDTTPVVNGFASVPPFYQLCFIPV
Sequence of Cytochrome P450 2C9 (P11712 whole entry): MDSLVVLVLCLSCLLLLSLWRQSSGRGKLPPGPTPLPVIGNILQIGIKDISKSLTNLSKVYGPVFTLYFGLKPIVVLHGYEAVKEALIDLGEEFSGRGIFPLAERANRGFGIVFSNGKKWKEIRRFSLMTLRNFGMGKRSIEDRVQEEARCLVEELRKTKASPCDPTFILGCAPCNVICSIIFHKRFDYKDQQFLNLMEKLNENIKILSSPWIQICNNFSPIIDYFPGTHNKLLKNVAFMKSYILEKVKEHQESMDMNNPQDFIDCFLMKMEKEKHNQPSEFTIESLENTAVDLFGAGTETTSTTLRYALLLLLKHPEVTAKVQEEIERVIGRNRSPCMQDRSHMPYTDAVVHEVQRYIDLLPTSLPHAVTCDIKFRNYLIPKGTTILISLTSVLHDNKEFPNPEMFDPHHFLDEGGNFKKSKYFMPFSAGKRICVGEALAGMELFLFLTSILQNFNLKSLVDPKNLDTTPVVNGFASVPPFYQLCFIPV
Sequence of 5-hydroxytryptamine receptor 5A (P47898 whole entry): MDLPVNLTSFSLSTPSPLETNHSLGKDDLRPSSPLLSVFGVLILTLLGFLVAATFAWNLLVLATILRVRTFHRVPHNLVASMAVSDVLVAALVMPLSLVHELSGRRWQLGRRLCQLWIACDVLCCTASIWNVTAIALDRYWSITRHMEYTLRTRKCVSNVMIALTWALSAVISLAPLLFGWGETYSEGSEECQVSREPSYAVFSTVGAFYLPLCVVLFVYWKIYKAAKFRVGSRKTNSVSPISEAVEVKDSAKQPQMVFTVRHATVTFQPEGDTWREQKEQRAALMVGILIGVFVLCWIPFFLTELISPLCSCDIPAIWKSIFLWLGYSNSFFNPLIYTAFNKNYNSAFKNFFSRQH
Sequence of Cytochrome P450 3A4 (P08684 whole entry): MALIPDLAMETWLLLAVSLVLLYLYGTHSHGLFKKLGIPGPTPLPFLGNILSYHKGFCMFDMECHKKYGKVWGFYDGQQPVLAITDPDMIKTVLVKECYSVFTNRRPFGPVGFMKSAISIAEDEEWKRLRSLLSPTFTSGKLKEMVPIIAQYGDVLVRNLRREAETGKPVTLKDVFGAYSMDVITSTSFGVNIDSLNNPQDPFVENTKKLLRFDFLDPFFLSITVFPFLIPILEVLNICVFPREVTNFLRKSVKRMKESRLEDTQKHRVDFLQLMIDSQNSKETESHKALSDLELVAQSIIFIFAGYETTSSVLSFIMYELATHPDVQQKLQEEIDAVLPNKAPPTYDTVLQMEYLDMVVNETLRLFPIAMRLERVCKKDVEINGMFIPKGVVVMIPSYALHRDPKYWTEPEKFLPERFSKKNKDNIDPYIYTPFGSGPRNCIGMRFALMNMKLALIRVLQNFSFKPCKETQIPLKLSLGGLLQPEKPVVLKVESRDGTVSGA
Sequence of Melanocortin receptor 4 (P32245 whole entry): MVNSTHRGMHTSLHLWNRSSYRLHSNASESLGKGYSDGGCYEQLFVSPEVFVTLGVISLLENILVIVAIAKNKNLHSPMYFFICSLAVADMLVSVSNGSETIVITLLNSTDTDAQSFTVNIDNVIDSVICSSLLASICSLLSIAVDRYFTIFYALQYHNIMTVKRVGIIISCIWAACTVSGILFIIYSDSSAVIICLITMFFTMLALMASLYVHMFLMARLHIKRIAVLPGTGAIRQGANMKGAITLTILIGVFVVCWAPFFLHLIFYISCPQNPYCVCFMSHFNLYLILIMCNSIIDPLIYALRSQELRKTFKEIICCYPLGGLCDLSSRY

Compound: COc1ccc(C(CNC(=O)c2cc3ccccc3cc2O)N2CCOCC2)cc1 (centres undefined)
- CC50 [1]: 100 µM (active)
- IC50 [2]: 77 µM (active)

Compound: CC(NC(=O)COC(=O)CNS(=O)(=O)/C=C/c1ccccc1)c1ccccc1 (centres undefined)
- IC50 (Melanocortin receptor 4): > 64.6 µM (inactive)
- IC50 [3]: > 64.6 µM (inactive)

Compound: CC(C)[C@H](NC(=O)c1ccc(C(C)(C)C)cc1)C(=O)N1CCN(Cc2ccc3c(c2)OCO3)CC1
- EC50 [4]: 4.33 µM (active)
- EC50 (Mu-type opioid receptor [5]): 92.5 µM (inactive)

Compound: Cc1nn2c(nc1=O)NNC2(C)C(C)(C)C (centres undefined)
- AC50 [6]: 130 µM (active)

Compound: C[C@H](NC(=O)C[C@H]1C=C[C@H](NC(=O)Cc2ccccn2)[C@H](CO)O1)c1ccccc1
- AbsAC35 [7]: 200 µM

Compound: COc1ccc2c(Cl)c(C(=O)NCCCn3ccnc3)sc2c1Cl
- IC50 (Beta-lactamase [8]): > 59.6 µM (inactive)
- IC50 (Beta-lactamase [9]): > 59.6 µM (inactive)

Compound: Cc1ccc2c(Cl)c(Cc3ccccc3)c(=S)[nH]c2n1
- EC50 [10]: > 92.5 µM (inactive)
- EC50 (Mu-type opioid receptor [11]): > 92.5 µM (inactive)
- EC50 [12]: > 92.5 µM (inactive)

Compound: COc1ccc(-c2cc3nc(NCCCN(C)C)n(C)c(=O)c3s2)cc1OC
- AC50 [13]: 11.5 µM (active)
- AC50 [14]: 4.79 µM (active)

Compound: O=C(Nc1cccc(Br)c1)c1cc(S(=O)(=O)N2CCOCC2)cs1
- AC50 [13]: 72.5 µM (active)

Compound: CN(CC(=O)Nc1ccccc1Br)C(=O)c1cc2c(s1)CCCCC2
- AC50 (HeLa): > 350 µM (inactive)

Compound: O=C1NC(=O)N(CCC2=CCCCC2)C(=O)/C1=C\Nc1cccc(F)c1
- EC50 [15]: > 120 µM (not active)
- EC50 [16]: 41.4 µM (active)
- AC50 (Cytochrome P450 2C19): 10 µM (inconclusive)
- EC50 [17]: > 120 µM (not active)
- AC50 (Cytochrome P450 2D6): inconclusive

Compound: CC(=O)Oc1ccc(C23c4ccccc4C2(OC(C)=O)c2cc(OC(C)=O)ccc23)cc1 (centres undefined)
- IC50 [18]: 5.5 µM (active)

Compound: Cc1ccc(S(=O)(=O)NC(=Nc2ccc([N+](=O)[O-])cc2[N+](=O)[O-])c2ccccc2)cc1
- IC50 [19]: 9.98 µM (active)
- EC50 [20]: > 53 µM (inactive)
- IC50 [21]: > 20 µM (inactive)

Compound: C[C@H](CO)N1C[C@H](C)[C@H](CN(C)Cc2ccc(Oc3ccccc3)cc2)Oc2ccc(NC(=O)CCCN(C)C)cc2C1=O
- AbsAC35 [7]: 286.99 µM

Compound: CCOC(=O)NCc1ccc2c(c1)cc(C)n2C
- AC50 (Cytochrome P450 3A4): 14.1 µM (inconclusive)
- AC50 (Cytochrome P450 2C9): inconclusive
- IC50 (Protein skinhead-1): > 100 µM (inactive)
- AC50 (Cytochrome P450 2D6): inconclusive

Compound: CCCCNC(=O)CCC(=O)N1CCN(C(c2ccccc2)c2ccccc2)CC1
- AC50 [6]: 81 µM (active)

Compound: CCOC(=O)C(NC(=O)CC(C)C)(Nc1sc(C)c(CC)c1C#N)C(F)(F)F (centres undefined)
- IC50 [19]: 13.6 µM (active)
- EC50 [20]: > 53 µM (inactive)
- IC50 [21]: > 20 µM (inactive)

Compound: CCCc1nc(C)c2c(=O)[nH]c(-c3cc(S(=O)(=O)N4CCN(CC)CC4)ccc3OCC)nn12
- IC50 [18]: 25.1 µM (inactive)

Compound: COc1ccc(S(=O)(=O)NCC(c2ccc3c(c2)OCO3)N2CCN(c3ccccc3)CC2)cc1 (centres undefined)
- EC50 [4]: 17.2 µM (inactive)
- EC50 (Mu-type opioid receptor [5]): 92.5 µM (inactive)

Compound: Cc1nc(NC(C)C)c2cnn(CCc3ccccc3)c2n1
- AC50 (HeLa): 84.6 µM (active)
